Source: ChEMBL document CHEMBL3046389, “Synthesis and biological evaluation of novel hydroquinone dimethyl ethers as potential anticancer and antimicrobial agents” (2013)
Converted amounts (≈) assume the structure as drawn.

Key:
Type in all cases: functional
Hs-578T = test: Growth inhibition of Homo sapiens (human) Hs 578T cells at 10 uM after 48 hr by SRB assay; details: read-out: GI
COLO 205 = test: Anticancer activity against Homo sapiens (human) COLO205 cells after 48 hr by SRB assay; details: COLO 205, 48 h; for CC50: read-out: LC50 (the source's name)
UO-31 [1] = test: Growth inhibition of Homo sapiens (human) UO31 cells at 10 uM after 48 hr by SRB assay; details: UO-31, 48 h, read-out: GI
T47D = test: Anticancer activity against Homo sapiens (human) T47D cells after 48 hr by SRB assay; details: for CC50: read-out: LC50 (the source's name)
TK-10 = test: Growth inhibition of Homo sapiens (human) TK10 cells at 10 uM after 48 hr by SRB assay; details: TK-10, 48 h, read-out: GI
PC-3 = test: Anticancer activity against Homo sapiens (human) PC3 cells after 48 hr by SRB assay; details: PC-3, 48 h; for CC50: read-out: LC50 (the source's name)
MDA-MB-468 = test: Anticancer activity against Homo sapiens (human) MDA-MB-468 cells after 48 hr by SRB assay; details: MDA-MB-468, 48 h; for CC50: read-out: LC50 (the source's name)
RXF 393 = test: Anticancer activity against Homo sapiens (human) RXF393 cells after 48 hr by SRB assay; details: RXF 393, 48 h
786-0 = test: Anticancer activity against Homo sapiens (human) 786-0 cells after 48 hr by SRB assay; details: 786-0, 48 h; for CC50: read-out: LC50 (the source's name)
OVCAR-3 = test: Anticancer activity against Homo sapiens (human) OVCAR3 cells after 48 hr by SRB assay; details: OVCAR-3, 48 h
DU-145 = test: Anticancer activity against Homo sapiens (human) DU145 cells after 48 hr by SRB assay; details: DU-145, 48 h
EKVX = test: Anticancer activity against Homo sapiens (human) EKVX cells after 48 hr by SRB assay; details: for CC50: read-out: LC50 (the source's name)
Escherichia coli = test: Antimicrobial activity against Escherichia coli ATCC 11775 after 48 hr by two-fold serial broth dilution method; details: ATCC 11775, 48 h
NCI/ADR-RES = test: Anticancer activity against Homo sapiens (human) NCI/ADR-RES cells after 48 hr by SRB assay
UACC-257 = test: Anticancer activity against Homo sapiens (human) UACC257 cells after 48 hr by SRB assay; details: UACC-257, 48 h
U-251 = test: Growth inhibition of Homo sapiens (human) U251 cells at 10 uM after 48 hr by SRB assay; details: U-251, 48 h, read-out: GI
Staphylococcus aureus = test: Antimicrobial activity against Staphylococcus aureus DSM 1104 after 48 hr by two-fold serial broth dilution method; details: DSM 1104, 48 h
NCI-H23 = test: Anticancer activity against Homo sapiens (human) NCI-H23 cells after 48 hr by SRB assay; details: NCI-H23, 48 h; for CC50: read-out: LC50 (the source's name)
MCF7 = test: Anticancer activity against Homo sapiens (human) MCF7 cells after 48 hr by SRB assay; details: MCF7, 48 h; for CC50: read-out: LC50 (the source's name)
SK-OV-3 [2] = test: Anticancer activity against Homo sapiens (human) SKOV3 cells after 48 hr by SRB assay; details: SK-OV-3, 48 h
MDA-MB-435 = test: Anticancer activity against Homo sapiens (human) MDA-MB-435 cells after 48 hr by SRB assay; details: MDA-MB-435, 48 h; for CC50: read-out: LC50 (the source's name)
SK-MEL-5 = test: Anticancer activity against Homo sapiens (human) SK-MEL-5 cells after 48 hr by SRB assay; details: SK-MEL-5, 48 h
SK-OV-3 [3] = test: Growth inhibition of Homo sapiens (human) SKOV3 cells at 10 uM after 48 hr by SRB assay; details: SK-OV-3, 48 h, read-out: GI
OVCAR-5 = test: Anticancer activity against Homo sapiens (human) OVCAR5 cells after 48 hr by SRB assay; details: OVCAR-5, 48 h; for CC50: read-out: LC50 (the source's name)
UO-31 [4] = test: Anticancer activity against Homo sapiens (human) UO31 cells after 48 hr by SRB assay; details: UO-31, 48 h
SN12C = test: Growth inhibition of Homo sapiens (human) SN12C cells at 10 uM after 48 hr by SRB assay; details: read-out: GI
HCT-116 = test: Growth inhibition of Homo sapiens (human) HCT116 cells at 10 uM after 48 hr by SRB assay; details: HCT-116, 48 h, read-out: GI
HOP-92 = test: Anticancer activity against Homo sapiens (human) HOP92 cells after 48 hr by SRB assay; details: HOP-92, 48 h
K562 = test: Growth inhibition of Homo sapiens (human) K562 cells at 10 uM after 48 hr by SRB assay; details: K562, 48 h, read-out: GI
HCT-15 = test: Growth inhibition of Homo sapiens (human) HCT15 cells at 10 uM after 48 hr by SRB assay; details: HCT-15, 48 h, read-out: GI
HL-60(TB) = test: Growth inhibition of Homo sapiens (human) HL-60(TB) cells at 10 uM after 48 hr by SRB assay; details: HL-60, 48 h, read-out: GI
IGROV-1 = test: Growth inhibition of Homo sapiens (human) IGROV1 cells at 10 uM after 48 hr by SRB assay; details: IGROV-1, 48 h, read-out: GI
BT-549 = test: Growth inhibition of Homo sapiens (human) BT549 cells at 10 uM after 48 hr by SRB assay; details: BT-549, 48 h, read-out: GI
[5] = read-out: LC50 (the source's name)

What does the source list for `COc1ccc(OC)c(/C=C/c2nnc(Nc3ccc(Cl)cc3)o2)c1`?
inhibition of growth at 10 µM (Hs-578T): 93.1%; GI50 (COLO 205): 16.6 µM; TGI (COLO 205): > 100 µM; CC50 (COLO 205): > 100 µM; inhibition of growth at 10 µM (UO-31 [1]): 95%; GI50 (T47D): 2.54 µM; TGI (T47D): > 100 µM; CC50 (T47D): > 100 µM; inhibition of growth at 10 µM (TK-10): 60.9%; GI50 (PC-3): 13.3 µM; TGI (PC-3): 76 µM; CC50 (PC-3): > 100 µM; GI50 (MDA-MB-468): 16.4 µM; TGI (MDA-MB-468): > 100 µM; CC50 (MDA-MB-468): > 100 µM; GI50 (RXF 393): 2.71 µM; LC50 (RXF 393): 56.1 µM; TGI (RXF 393): 7.92 µM; GI50 (786-0): 2.67 µM; TGI (786-0): 7.6 µM; CC50 (786-0): 55.3 µM; GI50 (OVCAR-3): 3.55 µM; LC50 (OVCAR-3): > 100 µM; TGI (OVCAR-3): 15.9 µM; GI50 (DU-145): 11.4 µM; TGI (DU-145): 36.9 µM; CC50 (DU-145; [5]): > 100 µM; GI50 (EKVX): 40.5 µM; TGI (EKVX): > 100 µM; CC50 (EKVX): > 100 µM; MBC (Escherichia coli): 50 µg/mL (≈ 140 µM); MIC (Escherichia coli): 50 µg/mL (≈ 140 µM); GI50 (NCI/ADR-RES): 7.62 µM; LC50 (NCI/ADR-RES): > 100 µM; TGI (NCI/ADR-RES): 98.1 µM; GI50 (UACC-257): 21.3 µM; LC50 (50% lethal concentration) (UACC-257): > 100 µM; TGI (UACC-257): > 100 µM; inhibition of growth at 10 µM (U-251): 58.2%; MBC (Staphylococcus aureus): 50 µg/mL (≈ 140 µM); MIC (Staphylococcus aureus): 50 µg/mL (≈ 140 µM); GI50 (NCI-H23): 21.7 µM; TGI (NCI-H23): > 100 µM; CC50 (NCI-H23): > 100 µM; GI50 (MCF7): 20.7 µM; TGI (MCF7): > 100 µM; CC50 (MCF7): > 100 µM; GI50 (SK-OV-3 [2]): 2.79 µM; LC50 (SK-OV-3 [2]): 60.6 µM; TGI (SK-OV-3 [2]): 7.85 µM; GI50 (MDA-MB-435): 37 µM; TGI (MDA-MB-435): > 100 µM; CC50 (MDA-MB-435): > 100 µM; GI50 (SK-MEL-5): 7.17 µM; LC50 (SK-MEL-5): > 100 µM; TGI (SK-MEL-5): > 100 µM; inhibition of growth at 10 µM (SK-OV-3 [3]): 67.1%; GI50 (OVCAR-5): 32.5 µM; TGI (OVCAR-5): > 100 µM; CC50 (OVCAR-5): > 100 µM; GI50 (UO-31 [4]): 3.13 µM; LC50 (50% lethal concentration) (UO-31 [4]): 78 µM; TGI (UO-31 [4]): 12.6 µM; inhibition of growth at 10 µM (SN12C): 55.1%; inhibition of growth at 10 µM (HCT-116): 78.1%

Which results are given for `COc1ccc(OC)c(/C=C/C(=O)N/N=C/c2ccccc2)c1`?
inhibition of growth at 10 µM (Hs-578T): 33.5%; GI50 (COLO 205): 4.8 µM; TGI (COLO 205): 35.1 µM; CC50 (COLO 205): > 100 µM; GI50 (HOP-92): 1.56 µM; TGI (HOP-92): 13.3 µM; CC50 (HOP-92; [5]): > 100 µM; inhibition of growth at 10 µM (UO-31 [1]): 43.4%; GI50 (T47D): 4.86 µM; TGI (T47D): > 100 µM; CC50 (T47D): > 100 µM; inhibition of growth at 10 µM (TK-10): 43.3%; GI50 (PC-3): 5.86 µM; TGI (PC-3): 52.1 µM; CC50 (PC-3): > 100 µM; GI50 (MDA-MB-468): 1.96 µM; TGI (MDA-MB-468): 6.47 µM; CC50 (MDA-MB-468): 61.6 µM; GI50 (RXF 393): 3.9 µM; LC50 (RXF 393): > 100 µM; TGI (RXF 393): 26.6 µM; GI50 (786-0): 7 µM; TGI (786-0): 72.5 µM; CC50 (786-0): > 100 µM; inhibition of growth at 10 µM (K562): 78.8%; GI50 (OVCAR-3): 3.15 µM; LC50 (OVCAR-3): > 100 µM; TGI (OVCAR-3): > 100 µM; GI50 (EKVX): 1.59 µM; TGI (EKVX): 59.5 µM; CC50 (EKVX): > 100 µM; inhibition of growth at 10 µM (HCT-15): 58%; MBC (Escherichia coli): 50 µg/mL (≈ 161 µM); MIC (Escherichia coli): 50 µg/mL (≈ 161 µM); GI50 (NCI/ADR-RES): 1.46 µM; LC50 (NCI/ADR-RES): > 100 µM; TGI (NCI/ADR-RES): 4.29 µM; GI50 (UACC-257): 5.76 µM; LC50 (50% lethal concentration) (UACC-257): > 100 µM; TGI (UACC-257): 33.6 µM; inhibition of growth at 10 µM (HL-60(TB)): 53.6%; inhibition of growth at 10 µM (U-251): 56.5%; MBC (Staphylococcus aureus): 100 µg/mL (≈ 322 µM); MIC (Staphylococcus aureus): 100 µg/mL (≈ 322 µM); inhibition of growth at 10 µM (IGROV-1): 61.5%; GI50 (NCI-H23): 5.4 µM; TGI (NCI-H23): 87 µM; CC50 (NCI-H23): > 100 µM; GI50 (MCF7): 3.79 µM; TGI (MCF7): > 100 µM; CC50 (MCF7): > 100 µM; GI50 (SK-OV-3 [2]): 12 µM; LC50 (SK-OV-3 [2]): > 100 µM; TGI (SK-OV-3 [2]): > 100 µM; inhibition of growth at 10 µM (BT-549): 39.2%; GI50 (MDA-MB-435): 0.283 µM; TGI (MDA-MB-435): 1.98 µM; CC50 (MDA-MB-435): > 100 µM; GI50 (SK-MEL-5): 2.94 µM; LC50 (SK-MEL-5): > 100 µM; TGI (SK-MEL-5): 14.6 µM; inhibition of growth at 10 µM (SK-OV-3 [3]): 40%; GI50 (OVCAR-5): 18 µM; TGI (OVCAR-5): > 100 µM; CC50 (OVCAR-5): > 100 µM; GI50 (UO-31 [4]): 5.9 µM; LC50 (50% lethal concentration) (UO-31 [4]): > 100 µM; TGI (UO-31 [4]): 85.5 µM; inhibition of growth at 10 µM (SN12C): 47.9%; inhibition of growth at 10 µM (HCT-116): 85.8%
